Experimental findings from US20130035326A1 (AMBIT BIOSCIENCES CORPORATION, priority 2009, published 2013) are described below.

For one test, the target named is T1, CSF-1R kinase (Homo sapiens, UniProt P07333).
T1 construct: made in house; host or cells: T7 phage display or HEK-293 cells
The experiment in a line: Competition binding assay, CSF-1R Kd. In a few lines:
(§1)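 In this bead-based competition format, test compound (eleven concentrations, threefold steps) was incubated with kinase and immobilized affinity ligand for 1 hour at room temperature. Kinase retained on beads was released with non-biotinylated ligand and measured by quantitative PCR to give Kd.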

The next test deals with T2, FLT3 kinase (Homo sapiens, UniProt P36888).
T2 construct: made in house; host or cells: T7 phage display or HEK-293 cells
T2 sequence (P36888 27-993): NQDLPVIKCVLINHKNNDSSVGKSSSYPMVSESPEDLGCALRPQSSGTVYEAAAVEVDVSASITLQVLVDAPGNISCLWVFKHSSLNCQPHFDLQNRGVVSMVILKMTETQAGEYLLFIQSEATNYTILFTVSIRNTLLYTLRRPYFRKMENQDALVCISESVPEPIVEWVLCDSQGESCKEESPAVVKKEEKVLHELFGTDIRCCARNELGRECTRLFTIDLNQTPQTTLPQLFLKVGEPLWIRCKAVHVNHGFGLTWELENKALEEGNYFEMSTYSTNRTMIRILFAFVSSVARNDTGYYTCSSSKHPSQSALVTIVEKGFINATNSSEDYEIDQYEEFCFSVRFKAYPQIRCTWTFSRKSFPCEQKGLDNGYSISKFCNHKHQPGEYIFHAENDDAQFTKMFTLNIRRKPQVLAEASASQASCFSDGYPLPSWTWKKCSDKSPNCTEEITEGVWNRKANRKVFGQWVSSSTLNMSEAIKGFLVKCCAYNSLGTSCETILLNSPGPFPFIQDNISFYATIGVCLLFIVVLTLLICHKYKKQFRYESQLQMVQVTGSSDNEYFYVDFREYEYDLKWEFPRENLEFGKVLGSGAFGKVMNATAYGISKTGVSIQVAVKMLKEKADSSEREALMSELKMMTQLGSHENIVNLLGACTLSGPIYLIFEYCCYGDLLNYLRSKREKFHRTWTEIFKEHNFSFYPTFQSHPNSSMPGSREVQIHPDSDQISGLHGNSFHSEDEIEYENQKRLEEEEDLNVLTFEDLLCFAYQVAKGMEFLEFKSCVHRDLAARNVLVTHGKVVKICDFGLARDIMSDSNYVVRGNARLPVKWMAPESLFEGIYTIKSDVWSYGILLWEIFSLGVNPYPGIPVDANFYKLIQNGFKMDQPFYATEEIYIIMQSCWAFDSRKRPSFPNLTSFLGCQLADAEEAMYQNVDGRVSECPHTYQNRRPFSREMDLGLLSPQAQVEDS
The experiment in a line: Competition binding assay, FLT3 Kd. In outline:
as §1

The target in test [1] is kinase panel containing either 359 or 386 distinct kinases. The experiment in a line: Selectivity score S10 from competition binding against a panel of kinases. Particulars: compounds at 10 μM; for Kinase specificty: S(10)-386 panel: panel of 386 distinct kinases; for Kinase specificty: S(10)-359 panel: panel of 359 distinct kinases. As for the experimental part:
Competition binding assays used herein were developed, validated and performed as described in Fabian et al., Nature Biotechnology 2005, 23,329-336. Kinases were produced as fusions to T7 phage (See, Fabian et al. or WO04/015142) or alternatively, the kinases were expressed in HEK-293 cells and subsequently tagged with DNA for PCR detection (See, WO08/005,310). For the binding assays, streptavidin-coated magnetic beads were treated with biotinylated affinity ligands for 30 min at room temperature to generate affinity resins. The liganded beads were blocked with excess biotin and washed with blocking buffer (SeaBlock (Pierce), 1% BSA, 0.05% Tween 20, 1 mM DTT) to remove unbound ligand and to reduce non-specific binding. Binding reactions were assembled by combining kinase, liganded affinity beads, and test compounds in 1× binding buffer (20% SeaBlock, 0.17×PBS, 0.05% Tween 20, 6 mM DTT). Test compounds were prepared as 100× stocks in DMSO and diluted into the aqueous environment. Kds were determined using an eleven point threefold serial dilutions. DMSO or control compounds were was added to control assays lacking a test compound. Primary screen assays were performed in polypropylene 384-well plates in a final volume of 20-40 μL, while Kd determinations were performed in polystyrene 96-well plates in a final volume of 135 μL. The assay plates were incubated at room temperature with shaking for 1 hour to allow the binding reactions to reach equilibrium, and the affinity beads were washed extensively with wash buffer (1×PBS, 0.05% Tween 20) to remove unbound protein. The beads were then resuspended in elution buffer (1×PBS, 0.05% Tween 20, 0.5 μM non-biotinylated affinity ligand) and incubated at room temperature with shaking for 30 min. The kinase concentration in the eluates was measured by quantitative PCR.
A selectivity score (S10) is a quantitative measure of selectivity of a compound against a panel of kinases. An S10 was calculated for a compound by dividing the number of kinases found to have a percent of control (DMSO) less than 10 by the total number of distinct kinases tested (excluding mutant variants). Percent of control (POC) is calculated by subtracting the signal of the control compound (POC=0) from the signal of the test compound and dividing the outcome by the signal of DMSO (POC=100) minus the signal of the control compound. For the compounds disclosed herein, S10 scores were obtained by testing the compounds at 10 μM concentration in a kinase panel containing either 359 or 386 distinct kinases.

The target in a further test is T3, KIT kinase (Homo sapiens, UniProt P10721).
T3 construct: made in house; host or cells: T7 phage display or HEK-293 cells
T3 sequence (P10721 26-976): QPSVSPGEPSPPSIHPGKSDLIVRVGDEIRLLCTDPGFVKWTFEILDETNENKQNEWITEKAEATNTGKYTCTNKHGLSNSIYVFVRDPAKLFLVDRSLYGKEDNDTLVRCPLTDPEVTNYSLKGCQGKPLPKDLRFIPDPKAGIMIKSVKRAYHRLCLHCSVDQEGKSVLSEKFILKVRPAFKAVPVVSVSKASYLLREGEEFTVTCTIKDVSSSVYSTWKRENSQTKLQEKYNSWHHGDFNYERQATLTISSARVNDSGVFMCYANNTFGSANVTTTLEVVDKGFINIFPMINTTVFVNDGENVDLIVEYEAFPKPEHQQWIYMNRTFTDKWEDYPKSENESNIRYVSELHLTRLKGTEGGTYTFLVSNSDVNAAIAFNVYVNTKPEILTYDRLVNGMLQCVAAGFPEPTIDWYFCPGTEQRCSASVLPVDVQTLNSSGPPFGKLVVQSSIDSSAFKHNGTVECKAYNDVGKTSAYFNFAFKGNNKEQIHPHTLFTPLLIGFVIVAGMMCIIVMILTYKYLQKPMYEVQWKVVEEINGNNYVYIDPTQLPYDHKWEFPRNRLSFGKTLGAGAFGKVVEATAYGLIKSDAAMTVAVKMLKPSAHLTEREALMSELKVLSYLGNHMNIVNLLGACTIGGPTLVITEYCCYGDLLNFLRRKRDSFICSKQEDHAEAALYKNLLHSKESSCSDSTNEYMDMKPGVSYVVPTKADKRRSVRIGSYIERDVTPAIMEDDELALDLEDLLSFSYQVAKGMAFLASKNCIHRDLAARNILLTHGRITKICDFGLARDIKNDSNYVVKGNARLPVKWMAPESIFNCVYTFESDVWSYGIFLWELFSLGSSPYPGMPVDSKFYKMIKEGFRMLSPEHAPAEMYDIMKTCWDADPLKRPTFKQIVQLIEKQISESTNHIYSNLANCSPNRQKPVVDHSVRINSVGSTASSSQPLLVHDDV
The experiment in a line: Competition binding assay, KIT Kd. In a few lines: as §1

A further test has as its system MV4-11 cells. The experiment in a line: MV4-11 cell proliferation assay (Alamar Blue). Particulars: Homo sapiens, MV4-11, 72 h, 3 days incubation. It counts as cell-based. In a few lines:
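Viability readout: Alamar Blue fluorescence, ex 560/em 590 nm, 3 h after reagent addition, after 3-day exposure of 64,000 MV4-11 cells per well to a 9-point half-log compound series in 0.5% FBS Iscove's. IC50 from duplicate averages, as 50% proliferation inhibition relative to negative control.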
A general note: The colour change of resazurin is a common sign of viable cells or microbes.

Usually Kd stands for the constant that tells how readily two partners part at equilibrium. Usually IC50 stands for the midpoint of a concentration-inhibition curve. Low readings indicate greater potency in that assay, high ones weaker potency in that assay.

Molecules are shown by their SMILES.

T1 sequence (P07333 20-972): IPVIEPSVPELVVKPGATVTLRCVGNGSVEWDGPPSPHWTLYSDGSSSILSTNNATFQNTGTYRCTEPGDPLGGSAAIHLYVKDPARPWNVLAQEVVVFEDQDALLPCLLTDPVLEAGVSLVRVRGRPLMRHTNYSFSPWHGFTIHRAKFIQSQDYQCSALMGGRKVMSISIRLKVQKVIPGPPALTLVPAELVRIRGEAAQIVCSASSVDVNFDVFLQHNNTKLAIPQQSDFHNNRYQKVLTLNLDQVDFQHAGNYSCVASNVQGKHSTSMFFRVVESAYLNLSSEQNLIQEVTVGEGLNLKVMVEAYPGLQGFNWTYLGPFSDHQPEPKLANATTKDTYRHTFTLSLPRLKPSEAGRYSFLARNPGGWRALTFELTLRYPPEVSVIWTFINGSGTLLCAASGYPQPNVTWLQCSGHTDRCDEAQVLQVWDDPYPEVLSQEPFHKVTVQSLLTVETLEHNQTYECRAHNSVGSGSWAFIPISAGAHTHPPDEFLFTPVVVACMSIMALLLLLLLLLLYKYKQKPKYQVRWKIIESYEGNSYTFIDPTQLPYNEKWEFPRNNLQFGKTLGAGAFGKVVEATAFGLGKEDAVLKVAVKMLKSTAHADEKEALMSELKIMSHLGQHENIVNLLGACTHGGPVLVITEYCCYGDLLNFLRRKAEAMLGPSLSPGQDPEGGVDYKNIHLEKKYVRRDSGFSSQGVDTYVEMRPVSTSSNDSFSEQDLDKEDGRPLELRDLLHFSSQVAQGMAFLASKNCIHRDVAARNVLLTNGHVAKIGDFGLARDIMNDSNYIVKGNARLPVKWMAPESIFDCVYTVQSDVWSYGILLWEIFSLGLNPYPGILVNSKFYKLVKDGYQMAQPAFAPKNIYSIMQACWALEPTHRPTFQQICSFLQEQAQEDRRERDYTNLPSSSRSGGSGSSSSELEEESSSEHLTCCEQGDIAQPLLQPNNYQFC

With `CC1(c2cc(NC(=O)Nc3ccc(-c4ccc(N)nc4)cc3)no2)COC1.CS(=O)(=O)O` [Example 98, 5-(4-(3-(5-(3-methyloxetan-3-yl)isoxazol-3-yl)ureido)phenyl)pyridin-2-aminium methanesulfonate], the results for the Kd at CSF-1R kinase, at FLT3 kinase and at KIT kinase were no more than 10 nM, 1 to 10 nM and 1 to 10 nM, respectively. Besides, the “Kinase specificty: S(10)-386 panel” value in test [1] was “A (A≦0.1)”. Further, the 50% inhibitory concentration (IC50) in the test on MV4-11 cells was in the range of 10 to 100 nM.

With `Nc1ccc(-c2ccc(CC(=O)Nc3cc(C4(C(F)(F)F)CCC4)on3)cc2)cn1` [Example 124, 2-(4-(6-aminopyridin-3-yl)phenyl)-N-(5-(1-(trifluoromethyl)cyclobutyl)isoxazol-3-yl)acetamide], the Kd was no more than 10 nM on CSF-1R kinase, no more than 1 nM at FLT3 kinase and 1 to 10 nM at KIT kinase. In addition, in test [1], the “Kinase specificty: S(10)-386 panel” value is on record as “B (0.1<B≦0.2 nM)”. Besides, the IC50 with MV4-11 cells is no more than 1 nM.

`CC(C)(C)c1cc(NC(=O)Cc2ccc(-c3cnc(N)c(C(F)F)c3)cc2)no1` [Example 163]: the results for the Kd on CSF-1R kinase, at FLT3 kinase and at KIT kinase were no more than 10 nM, no more than 1 nM and 1 to 10 nM, respectively. The “Kinase specificty: S(10)-386 panel” value in test [1] is on record as “B (0.1<B≦0.2 nM)”. The compound further gave an IC50 with MV4-11 cells of no more than 1 nM.

For the compound `CC(C)(C)c1cc(NC(=O)Cc2ccc(-c3ccc(N)nc3Cl)cc2)no1.CS(=O)(=O)O` [Example 132, 5-(4-(2-(5-tert-butylisoxazol-3-ylamino)-2-oxoethyl)phenyl)-6-chloropyridin-2-aminium methanesulfonate], the equilibrium dissociation constant (Kd) was no more than 10 nM at CSF-1R kinase, no more than 1 nM on FLT3 kinase and 1 to 10 nM on KIT kinase. Moreover, the “Kinase specificty: S(10)-386 panel” value in test [1] was “A (A≦0.1)”. This compound also displayed a 50% inhibitory concentration (IC50) with MV4-11 cells of 1 to 10 nM.

As for `CC(C)(C)c1cc(NC(=O)Cc2ccc(-c3cnc(N)cc3F)cc2)no1.CS(=O)(=O)O` [Example 151, 5-(4-(2-(5-tert-butylisoxazol-3-ylamino)-2-oxoethyl)phenyl)-4-fluoropyridin-2-aminium methanesulfonate], the dissociation constant (Kd) on CSF-1R kinase was no more than 10 nM; at FLT3 kinase, no more than 1 nM; at KIT kinase, 10 to 100 nM. Besides, the “Kinase specificty: S(10)-386 panel” value in test [1] is “B (0.1<B≦0.2 nM)”. The same compound returned an IC50 in the test with MV4-11 cells of 1 to 10 nM.

Regarding `CS(=O)(=O)O.Cc1cc(-c2ccc(CC(=O)Nc3cc(C4(C)COC4)on3)cc2)cnc1N` [Example 145, 3-methyl-5-(4-(2-((5-(3-methyloxetan-3-yl)isoxazol-3-yl)amino)-2-oxoethyl)phenyl)pyridin-2-aminium methanesulfonate], the Kd on CSF-1R kinase was no more than 10 nM; on FLT3 kinase, no more than 1 nM; at KIT kinase it was 1 to 10 nM. Besides, the “Kinase specificty: S(10)-386 panel” value in test [1] is listed as “A (A≦0.1)”. The compound further came in with a half-inhibitory concentration (IC50) in the test with MV4-11 cells of 10 to 100 nM.

Turning to `CS(=O)(=O)O.Nc1ccc(-c2ccc(NC(=O)Nc3cc(C4(C(F)(F)F)CCC4)on3)cc2)cn1` [Example 121, 5-(4-(3-(5-(1-(trifluoromethyl)cyclobutyl)isoxazol-3-yl)ureido)phenyl)pyridin-2-aminium methanesulfonate], the figures for the Kd at CSF-1R kinase, on FLT3 kinase and on KIT kinase were 10 to 100 nM, 1 to 10 nM and 1 to 10 nM, respectively. For the same compound, the “Kinase specificty: S(10)-386 panel” value in test [1] is reported as “A (A≦0.1)”. The compound also showed a half-inhibitory concentration (IC50) in the test on MV4-11 cells of no more than 1 nM.

With `CC(C)(C)c1cc(NC(=O)Nc2ccc(-c3cnc(CCCN4CCOCC4)nc3)cc2)no1` [Example 56, 1-(5-tert-butylisoxazol-3-yl)-3-(4-(2-(3-morpholinopropyl)pyrimidin-5-yl)phenyl)urea], the Kd was no more than 10 nM at CSF-1R kinase, no more than 1 nM on FLT3 kinase and 1 to 10 nM on KIT kinase. Also, the “Kinase specificty: S(10)-359 panel” value in test [1] is listed as “A (A≦0.1)”. The compound also displayed an IC50 in the test on MV4-11 cells of 10 to 100 nM.

In the case of `CC(C)(C)c1cc(NC(=O)Cc2ccc(-c3cc(F)c(N)nc3F)cc2)no1.CS(=O)(=O)O` [Example 152, 5-(4-(2-(5-tert-butylisoxazol-3-ylamino)-2-oxoethyl)phenyl)-3,6-difluoropyridin-2-aminium methanesulfonate], the values for the Kd at CSF-1R kinase, at FLT3 kinase and at KIT kinase were no more than 10 nM, no more than 1 nM and 1 to 10 nM, respectively. The “Kinase specificty: S(10)-386 panel” value in test [1] is “A (A≦0.1)”. In the test on MV4-11 cells, this compound showed an IC50 of no more than 1 nM.

Take `CC(C)(C)c1cc(NC(=O)Cc2ccc(-c3cnc4[nH]c(=O)oc4c3)cc2)no1` [Example 141, N-(5-tert-butylisoxazol-3-yl)-2-(4-(2-oxo-2,3-dihydrooxazolo[4,5-b]pyridin-6-yl)phenyl)acetamide]: the dissociation constant (Kd) on CSF-1R kinase was in the range of 10 to 100 nM; at FLT3 kinase it was 1 to 10 nM; on KIT kinase, 1 to 10 nM. In test [1], the “Kinase specificty: S(10)-386 panel” value is “B (0.1<B≦0.2 nM)”. Also, the half-inhibitory concentration (IC50) in the test on MV4-11 cells was 1 to 10 nM.

With `COc1cc(-c2ccc(CC(=O)Nc3cc(C4(C)CC4)on3)cc2)cnc1N` [Example 164], the equilibrium dissociation constant (Kd) at CSF-1R kinase was no more than 10 nM; on FLT3 kinase, no more than 1 nM; on KIT kinase, no more than 1 nM. Also, in test [1], the “Kinase specificty: S(10)-386 panel” value is “B (0.1<B≦0.2 nM)”. The compound also came in with an IC50 in the test with MV4-11 cells of 1 to 10 nM.

Regarding `CC(C)(C)c1cc(NC(=O)Nc2ccc(-c3cnc(NCCN4CCOCC4)nc3)cc2)no1` [Example 45, 1-(5-tert-butylisoxazol-3-yl)-3-{4-[2-(2-morpholin-4-yl-ethylamino)-pyrimidin-5-yl]phenyl}urea], the Kd is no more than 10 nM on CSF-1R kinase, no more than 1 nM at FLT3 kinase and no more than 1 nM at KIT kinase. Also, in test [1], the “Kinase specificty: S(10)-359 panel” value is on record as “B (0.1<B≦0.2 nM)”.

On to `CC(C)(C)c1cc(NC(=O)Nc2ccc(-c3cnc(CN4CCOCC4)nc3)cc2)no1` [Example 51, 1-(5-tert-butylisoxazol-3-yl)-3-(4-(2-(morpholinomethyl)pyrimidin-5-yl)phenyl)urea], for which the Kd on CSF-1R kinase was 100 to 500 nM; on FLT3 kinase, 10 to 100 nM; on KIT kinase, 1 to 10 nM. Besides, the “Kinase specificty: S(10)-359 panel” value in test [1] is on record as “A (A≦0.1)”.

For the compound `COc1cc(-c2cnc(N)nc2)ccc1NC(=O)Nc1cc(C(C)(C)C)on1` [Example 48, 1-[4-(2-aminopyrimidin-5-yl)-2-methoxy-phenyl]-3-(5-tert-butylisoxazol-3-yl)-urea], the dissociation constant (Kd) on CSF-1R kinase was no more than 10 nM; on FLT3 kinase, 1 to 10 nM; on KIT kinase, 1 to 10 nM. In addition, in test [1], the “Kinase specificty: S(10)-359 panel” value is given as “A (A≦0.1)”.
